Reference: PubChem BioAssay (NCI)
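Compound exposure: 48 hours, 5 concentrations, 96-well plates. GI50 = concentration required for 50% inhibition of growth. The concentration for full growth arrest is given as TGI.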

Legend:
Test in all cases: growth of human tumour cells (NCI), 48 h; in the data active = GI50 below about 0.43 µM; inactive = the rest
786-0 renal = tested on: 786-0 renal
A498 renal = tested on: A498 renal
A549 NSCLC = tested on: A549 NSCLC
ACHN renal = tested on: ACHN renal
BT-549 breast = tested on: BT-549 breast
CAKI-1 renal = tested on: CAKI-1 renal
CCRF-CEM leukemia = tested on: CCRF-CEM leukemia
COLO 205 colon = tested on: COLO 205 colon
DU-145 prostate = tested on: DU-145 prostate
EKVX NSCLC = tested on: EKVX NSCLC
HCC-2998 colon = tested on: HCC-2998 colon
HCT-116 colon = tested on: HCT-116 colon
HCT-15 colon = tested on: HCT-15 colon
HL-60(TB) leukemia = tested on: HL-60(TB) leukemia
HOP-62 NSCLC = tested on: HOP-62 NSCLC
HOP-92 NSCLC = tested on: HOP-92 NSCLC
HS 578T breast = tested on: HS 578T breast
HT29 colon = tested on: HT29 colon
IGROV1 ovarian = tested on: IGROV1 ovarian
K-562 leukemia = tested on: K-562 leukemia
KM12 colon = tested on: KM12 colon
LOX IMVI melanoma = tested on: LOX IMVI melanoma
M14 melanoma = tested on: M14 melanoma
MCF7 breast = tested on: MCF7 breast
MDA-MB-231 breast = tested on: MDA-MB-231 breast
MDA-MB-435 = tested on: MDA-MB-435
MOLT-4 leukemia = tested on: MOLT-4 leukemia
NCI-H226 lung = tested on: NCI-H226 lung

O=C(Nc1ccccc1C(F)(F)F)c1ccc(NC2=C(Cl)C(=O)N(Cc3ccccc3)C2=O)cc1
92.2 µM: TGI (NCI-H226 lung)
31.6 µM: TGI (MOLT-4 leukemia)
58.3 µM: TGI (BT-549 breast)
65.9 µM: TGI (IGROV1 ovarian)
80.5 µM: TGI (K-562 leukemia)
43.1 µM: TGI (HOP-62 NSCLC)
35.2 µM: TGI (HOP-92 NSCLC)
4.15 µM: TGI (CAKI-1 renal)
inactive: GI50 (786-0 renal) 33.7 µM | GI50 (A498 renal) 38.3 µM | GI50 (A549 NSCLC) 40.5 µM | GI50 (ACHN renal) 33.7 µM | GI50 (BT-549 breast) 24 µM | GI50 (CAKI-1 renal) 1.97 µM | GI50 (CCRF-CEM leukemia) 2.95 µM | GI50 (COLO 205 colon) 98.1 µM | GI50 (DU-145 prostate) 34.2 µM | GI50 (EKVX NSCLC) 86.9 µM | GI50 (HCC-2998 colon) 16.3 µM | GI50 (HCT-116 colon) 29.4 µM | GI50 (HCT-15 colon) 4.19 µM | GI50 (HL-60(TB) leukemia) 2.96 µM | GI50 (HOP-62 NSCLC) 21.5 µM | GI50 (HOP-92 NSCLC) 11.3 µM | GI50 (HS 578T breast) 43.6 µM | GI50 (HT29 colon) > 100 µM | GI50 (IGROV1 ovarian) 19.3 µM | GI50 (K-562 leukemia) 5.65 µM | GI50 (KM12 colon) > 100 µM | GI50 (LOX IMVI melanoma) 18.8 µM | GI50 (M14 melanoma) 51.6 µM | GI50 (MCF7 breast) 7.33 µM | GI50 (MDA-MB-231 breast) 12.8 µM | GI50 (MDA-MB-435) 51.5 µM | GI50 (MOLT-4 leukemia) 3.14 µM | GI50 (NCI-H226 lung) 13.6 µM
> 100 µM: TGI (786-0 renal) | TGI (A549 NSCLC) | TGI (ACHN renal) | TGI (COLO 205 colon) | TGI (DU-145 prostate) | TGI (EKVX NSCLC) | TGI (HCT-116 colon) | TGI (HCT-15 colon) | TGI (HS 578T breast) | TGI (HT29 colon) | TGI (KM12 colon) | TGI (LOX IMVI melanoma) | TGI (M14 melanoma) | TGI (MCF7 breast) | TGI (MDA-MB-435)
35.6 µM: TGI (HCC-2998 colon)
12.7 µM: TGI (CCRF-CEM leukemia)
17.6 µM: TGI (HL-60(TB) leukemia)
38.4 µM: TGI (MDA-MB-231 breast)
89.4 µM: TGI (A498 renal)
